The assay concerns the target T1, BRD9-GFP (Homo sapiens, UniProt Q9H8M2).
T1 construct: CHYSEL (2A cis-acting hydrolase element) remnant after GFP; mCherry is split off as a separate protein (C); expressed in transfected cells; host or cells: HEK293A cells (Invitrogen R70507), lentiviral transduction with pLenti6-BRD9-GFP-CHYSEL-mCherry, blasticidin selection
T1 sequence (Q9H8M2 1-597): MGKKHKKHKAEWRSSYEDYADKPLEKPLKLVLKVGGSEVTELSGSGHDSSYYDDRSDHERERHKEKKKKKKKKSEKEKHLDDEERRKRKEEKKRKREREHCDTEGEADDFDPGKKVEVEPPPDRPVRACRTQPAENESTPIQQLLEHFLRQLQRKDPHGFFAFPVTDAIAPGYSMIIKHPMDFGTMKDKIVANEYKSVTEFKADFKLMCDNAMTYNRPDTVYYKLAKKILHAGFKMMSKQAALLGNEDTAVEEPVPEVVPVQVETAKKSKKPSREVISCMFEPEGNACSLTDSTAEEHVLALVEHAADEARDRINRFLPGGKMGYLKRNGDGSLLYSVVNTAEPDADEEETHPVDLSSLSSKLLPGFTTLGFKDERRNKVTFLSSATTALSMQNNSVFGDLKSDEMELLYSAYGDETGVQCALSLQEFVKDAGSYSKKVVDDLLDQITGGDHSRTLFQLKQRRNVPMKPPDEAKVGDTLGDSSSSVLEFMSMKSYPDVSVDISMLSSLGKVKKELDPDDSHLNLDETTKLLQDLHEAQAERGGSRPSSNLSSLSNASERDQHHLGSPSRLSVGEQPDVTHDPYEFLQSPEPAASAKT
Description: BRD9-GFP protein abundance flow cytometry assay in HEK293A cells. It counts as cell-based. Conditions: HEK293A-BRD9-GFP-CHYSEL-mCherry cells; for BRD9 Deg Amax %: 24 h, % protein remaining at the concentration at which maximum degradation is seen; for DC50: 24 h at 37° C., 10-point 1:3 dilution, concentration at which 50% maximal degradation was observed. As for the experimental part:
Compounds of the invention were tested in the following cellular assays. The terms in Table 1 are defined as follows: DC50 refers to the concentration at which 50% maximal degradation was observed; deg Amax is the extent of degradation and the value refers to the % protein remaining at the concentration at which maximum degradation is seen.
BRD9-GFP protein abundance flow cytometry assay in HEK293A cells: Degradation of BRD9 was measured in HEK293A cells expressing BRD9-GFP and mCherry from a stably integrated second generation bicistronic BRD9-GFP-CHYSELmCherry construct. Reduction of the GFP signal measured by flow cytometry served as readout for BRD9 degradation after degrader treatment.
The bicistronic BRD9-GFP-CHYSEL-mCherry construct is based on a pLenti6-DEST vector backbone where a GFP-CHYSEL-mCherry cassette was synthesized and inserted downstream of the DEST cassette by Gibson assembly resulting in the new gateway compatible vector pLenti6-DEST-GFP-CHYSEL-mCherry to allow Gateway cloning with pENTR221-BRD9 (w/o ATG) to obtain the final sensor construct pLenti6-BRD9-GFP-CHYSEL-mCherry.
HEK293 Å-BRD9-GFP-CHYSEL-mCherry sensor cells were generated by lentiviral vector transduction using the pLenti6-BRD9-GFP-CHYSEL-mCherry sensor construct described before. […] The mix was incubated for another 20 min at RT and then added to 1 ml of a freshly prepared suspension of HEK293FT cells in a well of a 6-well plate (concentration 1.2×10^6 cells/ml). 1 day after transfection, the medium was replaced with 1.5 ml of complete growth medium (DMEM high Glucose+10% FCS+1% L-Glutamine+1% NEAA+1% NaPyr.). 48 h post transfection supernatant containing viral transducing particles was collected and frozen at −80° C. […] Infection was performed with […] of collected supernatant containing viral transducing particles in 1 ml medium including 8 μg/ml polybrene. 24 h post infection, stably transfected cells were selected with blasticidin at a concentration of 8 μg/ml.
Stable HEK293 Å-BRD9-GFP-CHYSEL-mCherry cells were maintained in complete growth medium (DMEM high Glucose+10% FCS+1% L-Glutamine+1% NEAA+1% NaPyr.) with passaging performed twice per week. On Day 0, HEK293 Å-BRD9-GFP-CHYSEL-mCherry cells were seeded at 10,000 cells/well in a 96-well microtiter plate in […] complete medium. On Day 1, cells were treated in duplicate with 10-point 1:3 dilution series of compound using the HP D300 Digital Dispenser (Tecan). DMSO concentrations were normalized across the plate to 0.1%. On Day 2, after 24 h of incubation at 37° C., treatment media was discarded, cells rinsed with 100 ul/well PBS and then detached using 40 ul trypsin/well for 5 min. Trypsin was neutralized with 100 ul/well PBS+20% FCS). Flow cytometry was performed on the samples using the Beckman Coulter CytoFLEX flow cytometer. Cell identification was then performed using forward (FSC) vs. side scatter (SSC) plots. Single cell discrimination is performed using FSC-Width (FSC-W) vs. FSC-Height (FSC-H) plots. Median GFP/mCherry ratio values for 5,000 single cells are used to determine BRD9 levels. Median GFP/mCherry ratio values from HEK293 Å-mCherry are used as a background signal and thus defining 0% BRD9 signal. Median GFP/mCherry ratio values from DMSO treated HEK293 Å-BRD9-GFP-CHYSEL-mCherry are used to define 100% BRD9 signal for subsequent DC50 curves (concentration at 50% BRD9 degradation). Concentration response curves plotting relative reduction of the GFP/mCherry ratio signal (measured by flow cytometry) versus 10 compound concentrations (starting concentration […], 3 fold dilution steps) of the compounds allowed generation of DC50 values. Data is shown in Tables 2 and 3, in which, DC50 refers to the concentration at which 50% maximal degradation was observed; deg Amax is the extent of degradation and the value refers to the % protein remaining at the concentration at which maximum degradation is seen.
In general terms: In flow cytometry, cells or beads pass a laser one at a time.

Each structure is given as a SMILES string.

For the compound `CCCCn1cc(-c2ccc(O[C@H]3CC[C@@H](OC4CCN(C(=O)c5ccc(OC)c(N6CCC(=O)NC6=O)c5)CC4)CC3)cc2)c2ccncc2c1=O` [Compound E3, 1-(5-(4-(((cis)-4-(4-(2-butyl-1-oxo-1,2-dihydro-2,7-naphthyridin-4 yl)phenoxy)cyclohexyl)oxy)piperidine-1-carbonyl)-2-methoxyphenyl)dihydropyrimidine-2,4(1H,3H)-dione], the “BRD9 Deg Amax %” value is on record as 18.38% and the half-maximal degradation concentration (DC50) was found to be 2 nM.

Take `COc1ccc(C(=O)N2CCC(OC3CCN(Cc4c(OC)cc(-c5cn(C)c(=O)c6cnccc56)cc4OC)CC3)CC2)cc1N1CCC(=O)NC1=O` [Compound A42, 1-(5-(4-((1-(2,6-Dimethoxy-4-(2-methyl-1-oxo-1,2-dihydro-2,7-naphthyridin-4-yl)benzyl)piperidin-4-yl)oxy)piperidine-1-carbonyl)-2-methoxyphenyl)dihydropyrimidine-2,4(1H,3H)-dione]: the “BRD9 Deg Amax %” value is listed as 13.53% and it took 98 nM to reach half-maximal degradation (DC50).

Turning to `CCCCn1cc(-c2cc(F)c(CN3CCC(OC4CCN(C(=O)c5ccc(OC)c(N6CCC(=O)NC6=O)c5)CC4)CC3)c(OC)c2)c2ccncc2c1=O` [Compound E51, 1-(5-(4-((1-(4-(2-butyl-1-oxo-1,2-dihydro-2,7-naphthyridin-4-yl)-2-fluoro-6-methoxybenzyl)-piperidin-4-yl)oxy)piperidine-1-carbonyl)-2-meth-oxyphenyl)dihydro-pyrimidine-2,4(1H,3H)-dione], the “BRD9 Deg Amax %” value turned out to be 11.66% and the DC50 turned out to be 7 nM.

For `COc1cc(-c2cn(C)c(=O)c(C)c2C)c(OC)cc1CN1CCC(OC2CCN(C(=O)c3ccc(Cl)c(N4CCC(=O)NC4=O)c3)CC2)CC1` [Compound A18, 1-(2-Chloro-5-(4-((1-(2,5-dimethoxy-4-(1,4,5-trimethyl-6-oxo-1,6-dihydropyridin-3-yl)benzyl)piperidin-4-yl)oxy)piperidine-1-carbonyl)phenyl)dihydropyrimidine-2,4(1H,3H)-dione], the “BRD9 Deg Amax %” value is 11.83% and the half-maximal degradation concentration (DC50) came to 15 nM.

Consider `CCCCn1cc(-c2ccc(OC3CCN(CC4CCN(C(=O)c5ccc(Cl)c(N6CCC(=O)NC6=O)c5)CC4)CC3)c(OC)c2)c2ccncc2c1=O` [Compound B6, 1-(5-(4-((4-(4-(2-butyl-1-oxo-1,2-dihydro-2,7-naphthyridin-4-yl)-2-methoxyphenoxy)piperidin-1-yl)methyl)piperidine-1-carbonyl)-2-chlorophenyl)dihydropyrimidine-2,4(1H,3H)-dione], for which the “BRD9 Deg Amax %” value was 16.75% and the DC50 came out at 1 nM.

In the case of `CCCn1cc(-c2cc(OC)c(CCN3CCC(OC4CCN(C(=O)c5ccc(Cl)c(N6CCC(=O)NC6=O)c5)CC4)CC3)c(OC)c2)cc(C)c1=O` [Compound B1, 1-(2-Chloro-5-(4-((1-(2,6-dimethoxy-4-(5-methyl-6-oxo-1-propyl-1,6-dihydropyridin-3-yl)phenethyl)piperidin-4-yl)oxy)piperidine-1-carbonyl)phenyl)dihydropyrimidine-2,4(1H,3H)-dione], the “BRD9 Deg Amax %” value was found to be 11.90% and half-maximal degradation (DC50) was put at 2 nM.

Take `CCCCn1cc(-c2cc(OC)c(CCN3CCC(OC4CCN(CCn5cccc(CN6CCC(=O)NC6=O)c5=O)CC4)CC3)cc2OC)c2ccncc2c1=O` [Compound D3, 1-((1-(2-(4-((1-(4-(2-butyl-1-oxo-1,2-dihydro-2,7-naphthyridin-4-yl)-2,5-dimethoxyphenethyl)piperidin-4-yl)oxy)piperidin-1-yl)ethyl)-2-oxo-1,2-dihydropyridin-3-yl)methyl)dihydropyrimidine-2,4(1H,3H)-dione]: the “BRD9 Deg Amax %” value stood at 17.62% and half-maximal degradation (DC50) was put at 47 nM.

With `CCCCn1cc(-c2cc(F)c(CN3CCC(OC4CCN(C(=O)COc5ccc(C)c(N6CCC(=O)NC6=O)c5)CC4)CC3)c(F)c2)c2ccncc2c1=O` [Compound E45, 1-(5-(2-(4-((1-(4-(2-butyl-1-oxo-1,2-dihydro-2,7-naphthyridin-4-yl)-2,6-difluorobenzyl)piperidin-4-yl)oxy)piperidin-1-yl)-2-oxoethoxy)-2-methylphenyl)dihydropyrimidine-2,4(1H,3H)-dione], the “BRD9 Deg Amax %” value was 15.28% and the 50% degradation concentration (DC50) came to 7 nM.

Turning to `COc1cc(-c2cn(C)c(=O)c3cnccc23)cc(OC)c1CCN1CCC(OC2CCN(C(=O)c3ccc(Cl)c(N4CCC(=O)NC4=O)c3)CC2)CC1` [Compound A38, 1-(2-Chloro-5-(4-((1-(2,6-dimethoxy-4-(2-methyl-1-oxo-1,2-dihydro-2,7-naphthyridin-4-yl)phenethyl)piperidin-4-yl)oxy)piperidine-1-carbonyl)phenyl)dihydropyrimidine-2,4(1H,3H)-dione], the “BRD9 Deg Amax %” value came out at 15.53% and the 50% degradation concentration (DC50) was determined as 1 nM.

`COc1cc(-c2cn(C)c(=O)c3cnccc23)c(OC)cc1CCN1CCC(OC2CCN(CCn3cccc(CN4CCC(=O)NC4=O)c3=O)CC2)CC1` [Compound C3, 1-((1-(2-(4-((1-(2,5-dimethoxy-4-(2-methyl-1-oxo-1,2-dihydro-2,7-naphthyridin-4-yl)phenethyl)piperidin-4-yl)oxy)piperidin-1-yl)ethyl)-2-oxo-1,2-dihydropyridin-3-yl)methyl)dihydropyrimidine-2,4(1H,3H)-dione]: the “BRD9 Deg Amax %” value is 17.50% and the half-maximal degradation concentration (DC50) amounted to 77 nM.

In the case of `CCCCn1cc(-c2ccc(O[C@H]3CCN(CC4CCN(CCn5cccc(CN6CCC(=O)NC6=O)c5=O)CC4)C[C@@H]3F)cc2)c2ccncc2c1=O` [Compound E28, 1-((1-(2-(4-(((3S,4S)-4-(4-(2-butyl-1-oxo-1,2-dihydro-2,7-naphthyridin-4-yl)phenoxy)-3-fluoropiperidin-1-yl)methyl)piperidin-1-yl)ethyl)-2-oxo-1,2-dihydropyridin-3-yl)methyl)dihydropyrimidine-2,4(1H,3H)-dione], the “BRD9 Deg Amax %” value amounted to 23.20% and the 50% degradation concentration (DC50) is 21 nM.

What is called DC50 is the concentration at which degradation of the target reaches its halfway point.

Values taken from US20220315578A1, “BRD9 BIFUNCTIONAL DEGRADERS AND THEIR METHODS OF USE” (NOVARTIS AG, priority 2019, published 2022).
